Values after ≈ are worked out from the molar mass of the structure shown. Active and inactive are the calls of the source. The rule behind the calls is not given here.
Experiments:
Staphylococcus aureus [1] = assay: Antibacterial activity against methicillin resistant Staphylococcus aureus ATCC 33591 assessed as post antibiotic effect at 2 times MIC by time kill assay; type: functional
[2] = system: Staphylococcus epidermidis; assay: Ratio of MBC to MIC against methicillin-resistant Staphylococcus epidermidis clinical isolate 202409139; type: functional
[3] = system: Staphylococcus epidermidis; assay: Antibacterial activity against Staphylococcus epidermidis ATCC 51625 assessed as bacterial growth inhibition measured after 20 hrs by broth dilution method; type: functional
Staphylococcus aureus [4] = assay: Antibacterial activity against methicillin-resistant Staphylococcus aureus ATCC 33591 infected in female C57 mouse systemic infection model assessed as reduction in bacterial load in kidney at 40 mg/kg, iv administered twice daily and measured after 7 days; type: functional; conditions: time 7 day
Staphylococcus aureus [5] = assay: Antibacterial activity against methicillin-resistant Staphylococcus aureus ATCC 33591 infected in female C57 mouse systemic infection model assessed as restoration of cell morphology at 40 mg/kg, iv administered twice daily and measured after 7 days by H and E staining based analysis; type: functional, organism-based; conditions: time 7.0 day
[6] = Half life in mouse at 5 mg/kg, iv measured after 8 hrs; type: ADME, organism-based; conditions: in vivo
Staphylococcus aureus [7] = assay: Antibacterial activity against methicillin-resistant Staphylococcus aureus ATCC 33591 infected in female C57 mouse systemic infection model assessed as reduction of mononuclear cell infiltration in liver at 40 mg/kg, iv administered twice daily and measured after 7 days by H and E staining based analysis; type: functional, organism-based; conditions: time 7.0 day
Staphylococcus aureus [8] = assay: Antibacterial activity against methicillin-resistant Staphylococcus aureus clinical isolate 202405157 assessed as bacterial growth inhibition measured after 20 hrs by broth dilution method; type: functional
Staphylococcus aureus [9] = assay: Antibacterial activity against methicillin-resistant Staphylococcus aureus ATCC 33591 infected in female C57 mouse systemic infection model assessed as reduction in tubular necrosis in kidney at 40 mg/kg, iv administered twice daily and measured after 7 days by H and E staining based analysis; type: functional, organism-based; conditions: time 7.0 day
Enterococcus faecium [10] = assay: Ratio of MBC to MIC against vancomycin-resistant Enterococcus faecium ATCC 51559; type: functional
[11] = Hemolytic activity in rabbit RBC assessed as hemolysis rate at 0 to 100 ug/ml incubated for 1 hr by microplate reader analysis relative to control; type: toxicity, cell-based, Oryctolagus cuniculus, Erythrocyte; conditions: rabbit red blood cells, dose 0-100 µg/ml, read-out: Activity
Staphylococcus aureus [12] = assay: Bactericidal activity against methicillin-resistant Staphylococcus aureus ATCC 33591 measured upto 24 hrs by time kill assay; type: functional, organism-based
Staphylococcus aureus [13] = assay: Antibiofilm activity in methicillin-resistant Staphylococcus aureus ATCC 33591 assessed as disruption of preformed biofilm at 1 time MIC measured after 24 hrs by crystal violet staining based assay relative to control; type: functional
Staphylococcus aureus [14] = assay: Antibacterial activity against methicillin-resistant Staphylococcus aureus clinical isolate 202311772 assessed as bacterial growth inhibition measured after 20 hrs by broth dilution method; type: functional
Staphylococcus aureus [15] = assay: Induction of morphological changes in methicillin-resistant Staphylococcus aureus ATCC 33591 assessed as appearance of wrinkled cell surface at 1 to 4 times MIC measured after 4 hrs by SEM analysis; type: functional, organism-based
[16] = Volume of distribution at steady state in mouse at 5 mg/kg, iv measured after 8 hrs; type: ADME, organism-based; conditions: in vivo, read-out: Vdss
Streptococcus pneumoniae [17] = assay: Antibacterial activity against penicillin-resistant Streptococcus pneumoniae ATCC 51916 assessed as bacterial growth inhibition measured after 20 hrs by broth dilution method; type: functional
HepG2 = assay: Cytotoxicity against human HepG2 cells at 0 to 40 ug/ml measured after 24 hrs by MTT assay relative to control; type: functional; conditions: dose 0-40 µg/ml
Staphylococcus aureus [18] = assay: Antibacterial activity against methicillin-resistant Staphylococcus aureus ATCC 33591 infected in female C57 mouse systemic infection model assessed as effective dose; type: functional
Staphylococcus aureus [19] = assay: Antibacterial activity against methicillin-resistant Staphylococcus aureus ATCC 33591 infected in female C57 mouse systemic infection model assessed as reduction in local blood cell accumulation in spleen at 40 mg/kg, iv administered twice daily and measured after 7 days by H and E staining based analysis; type: functional, organism-based; conditions: time 7.0 day
Staphylococcus aureus [20] = assay: Antibacterial activity against methicillin-resistant Staphylococcus aureus ATCC 33591 infected in female C57 mouse systemic infection model assessed as reduction in vacuolation in heart at 40 mg/kg, iv administered twice daily and measured after 7 days by H and E staining based analysis; type: functional, organism-based; conditions: time 7.0 day
Staphylococcus aureus [21] = assay: Induction of morphological changes in methicillin-resistant Staphylococcus aureus ATCC 33591 assessed as appearance of rough cell surface at 1 time MIC measured after 4 hrs by SEM analysis; type: functional, organism-based
Staphylococcus aureus [22] = assay: Antibacterial activity against methicillin-resistant Staphylococcus aureus ATCC 43300 assessed as bacterial growth inhibition measured after 20 hrs by broth dilution method; type: functional
Staphylococcus aureus [23] = assay: Ratio of MBC to MIC against methicillin-resistant Staphylococcus aureus clinical isolate 202313160; type: functional
[24] = Hemolytic activity in rabbit RBC assessed as hemolysis rate at 200 ug/ml incubated for 1 hr by microplate reader analysis relative to control; type: toxicity, cell-based, Oryctolagus cuniculus, Erythrocyte; conditions: rabbit red blood cells, at 200 µg/mL, read-out: Activity
Staphylococcus aureus [25] = assay: Antibacterial activity against methicillin-resistant Staphylococcus aureus clinical isolate 202313160 assessed as bacterial growth inhibition measured after 20 hrs by broth dilution method; type: functional
Staphylococcus aureus [26] = assay: Antibacterial activity against methicillin-resistant Staphylococcus aureus ATCC 33591 infected in female C57 mouse systemic infection model assessed as reduction in bacterial load in spleen at 40 mg/kg, iv administered twice daily and measured after 7 days; type: functional; conditions: time 7 day
Staphylococcus aureus [27] = assay: Bactericidal activity against methicillin-resistant Staphylococcus aureus ATCC 33591 at 1 to 8 times MIC by time kill assay; type: functional, organism-based; conditions: time <= 24.0 hrs
Enterococcus faecium [28] = assay: Ratio of MBC to MIC against vancomycin-resistant Enterococcus faecium clinical isolate 202308456; type: functional
Staphylococcus aureus [29] = assay: Ratio of MBC to MIC against Staphylococcus aureus ATCC 43300; type: functional
Streptococcus pneumoniae [30] = assay: Ratio of MBC to MIC against penicillin-intermediate Streptococcus pneumoniae ATCC 49619; type: functional
Staphylococcus aureus [31] = assay: Antibiofilm activity in methicillin-resistant Staphylococcus aureus ATCC 33591 assessed as inhibition of biofilm formation at 1/16 times MIC measured after 48 hrs by crystal violet staining based analysis relative to control; type: functional; set-up: scale not given: the % may be the effect or the level left
[32] = system: Staphylococcus epidermidis; assay: Antibacterial activity against methicillin-resistant Staphylococcus epidermidis clinical isolate 202409139 assessed as bacterial growth inhibition measured after 20 hrs by broth dilution method; type: functional
Staphylococcus aureus [33] = assay: Antibacterial activity against methicillin-resistant Staphylococcus aureus ATCC 33591 infected in female C57 mouse systemic infection model assessed as reduction of edema in kidney at 40 mg/kg, iv administered twice daily and measured after 7 days by H and E staining based analysis; type: functional, organism-based; conditions: time 7.0 day
Staphylococcus aureus [34] = assay: Induction of morphological changes in methicillin-resistant Staphylococcus aureus ATCC 33591 assessed as appearance of shrinked cell surface at 1 time MIC measured after 4 hrs by SEM analysis; type: functional, organism-based
L02 = assay: Cytotoxicity against human HL7702 cells at 0 to 40 ug/ml measured after 24 hrs by MTT assay relative to control; type: toxicity, cell-based; conditions: l02, 24 h, dose 0-40 µg/ml
Staphylococcus aureus [35] = assay: Antibacterial activity against methicillin-resistant Staphylococcus aureus ATCC 33591 infected in female C57 mouse systemic infection model assessed as reduction in disordered myocardial fibers in heart at 40 mg/kg, iv administered twice daily and measured after 7 days by H and E staining based analysis; type: functional, organism-based; conditions: time 7.0 day

Structure (SMILES): C=C[C@]1(C)C[C@@H](OC(=O)CSc2cc(=O)oc3cc(OC)ccc23)[C@]2(C)[C@H](C)CC[C@]3(CCC(=O)[C@H]32)[C@@H](C)[C@@H]1O
- PAE (Staphylococcus aureus [1]): 1.51 h
- Ratio [2]: 2
- MIC [3]: 0.016 µg/mL (≈ 0.0281 µM)
- Activity (Staphylococcus aureus [4]): 1.91 log10CFU/g
- Activity (Staphylococcus aureus [5]): Active
- half-life [6]: 1.52 h
- Activity (Staphylococcus aureus [7]): Active
- MIC (Staphylococcus aureus [8]): 0.063 µg/mL (≈ 0.111 µM)
- Activity (Staphylococcus aureus [9]): Active
- Ratio (Enterococcus faecium [10]): 1
- hemolysis at 1 h [11]: < 4%
- Activity (Staphylococcus aureus [12]): Dose-dependent-effect
- Activity (Staphylococcus aureus [13]): 30.31%
- MIC (Staphylococcus aureus [14]): 0.031 µg/mL (≈ 0.0545 µM)
- Activity (Staphylococcus aureus [15]): Active
- Vd [16]: 1.76 L/kg
- MIC (Streptococcus pneumoniae [17]): 0.063 µg/mL (≈ 0.111 µM)
- Activity (HepG2): >85%
- ED50 (Staphylococcus aureus [18]): 11.2 mg/kg
- Activity (Staphylococcus aureus [19]): Active
- Activity (Staphylococcus aureus [20]): Active
- Activity (Staphylococcus aureus [21]): Active
- MIC (Staphylococcus aureus [22]): 0.031 µg/mL (≈ 0.0545 µM)
- Ratio (Staphylococcus aureus [23]): 2
- hemolysis at 1 h, 200 ug/ml [24]: < 8%
- MIC (Staphylococcus aureus [25]): 0.063 µg/mL (≈ 0.111 µM)
- Activity (Staphylococcus aureus [26]): 1.68 log10CFU/g
- Activity (Staphylococcus aureus [27]): Time-dependent-effect
- Ratio (Enterococcus faecium [28]): 2
- Ratio (Staphylococcus aureus [29]): >4
- Ratio (Streptococcus pneumoniae [30]): >4
- Activity (Staphylococcus aureus [31]): 80.67%
- MIC [32]: 0.031 µg/mL (≈ 0.0545 µM)
- Activity (Staphylococcus aureus [33]): Active
- Activity (Staphylococcus aureus [34]): Active
- Activity (L02): > 85%
- Activity (Staphylococcus aureus [35]): Active
